This note sets out measurements from BindingDB's records for doi:10.1016/s0960-894x(98)00197-8 (Pharmacia & Upjohn, 1999).

Each structure is given as a SMILES string.

This experiment concerns the target Human immunodeficiency virus type 1 protease (Human immunodeficiency virus 1, UniProt Q72874). The experiment can be described thus: Compound was evaluated for in vitro inhibition of human immunodeficiency virus type 1 (HIV-1) Protease.

`CCC(c1cccc(NS(=O)(=O)c2ccc(C#N)cn2)c1)C1C(=O)CC(CC)(c2cccc(NS(=O)(=O)c3ccc(C#N)cn3)c2)OC1=O` (configuration not stated) [2N-[3-(1-{2-[3-(5-cyano-2-pyridylsulfonamido)phenyl]-2-ethyl-4-hydroxy-6-oxo-3,6-dihydro-2H-5-pyranyl}propyl)phenyl]-5-cyano-2-pyridinesulfonamide] came in with an inhibition constant (Ki) of 0.1 nM.

`CCCC1(CCc2ccccc2)CC(=O)C(C(CC)c2cccc(NS(=O)(=O)c3ccc(C#N)cn3)c2)C(=O)O1` (configuration not stated) [5-cyano-N-(3-{1-[4-hydroxy-2-oxo-6-(2-phenylethyl)-6-propyl-5,6-dihydro-2H-pyran-3-yl]propyl}phenyl)pyridine-2-sulfonamide] registered a Ki of 0.1 nM.

As usually defined, the Ki is the equilibrium dissociation constant of an inhibitor or competing ligand from its target.
